Literature values as cited in patent US20260182571A1, “A ME[…] AND USE THEREOF” (I-TECH AB, priority 2022, published 2026).

Details: pH 7 and 20° C.

## On1ccccc1=S.On1ccccc1=S.[Cu] [CuPT, copper (II) pyrithione]
  (equilibrium) water solubility: less than 0.039 mg/L
